Experimental data as given in the NIST ThermoML archive (doi:10.1021/acs.jced.9b00327).
Numbers after ± are expanded uncertainties.

Legend:
[1] = mn = molality of the nth substance listed, in mol/kg; conditions: 100 kPa, Liquid; for speed of sound: Single path-length method; for mass density: Vibrating tube method
[2] = 100 kPa, Liquid, Single path-length method

Cn1c(=O)c2c(ncn2C)n(C)c1=O [caffeine] + O
[1]
Conditions | mass density, m1 = 0.005 [kg/m3] | mass density, m1 = 0.01 [kg/m3] | mass density, m1 = 0.02 [kg/m3] | mass density, m1 = 0.04 [kg/m3] | mass density, m1 = 0.06 [kg/m3] | speed of sound, m1 = 0.005 [m/s] | speed of sound, m1 = 0.01 [m/s] | speed of sound, m1 = 0.02 [m/s] | speed of sound, m1 = 0.04 [m/s] | speed of sound, m1 = 0.06 [m/s]
293.15 K | 998.731 ± 1 | 998.986 ± 1 | 999.492 ± 1 | 1000.68 ± 1 | 1001.78 ± 1 | 1483 ± 4 | 1483.5 ± 4 | 1484 ± 4 | 1485.1 ± 4 | 1486.2 ± 4
298.15 K | 997.275 ± 1 | 997.549 ± 1 | 998.082 ± 1 | 999.091 ± 1 | 1000.02 ± 1 | 1497.2 ± 4 | 1497.6 ± 4 | 1498 ± 4 | 1499 ± 4 | 1500.1 ± 4
303.15 K | 996.169 ± 1 | 996.422 ± 1 | 996.912 ± 1 | 997.986 ± 1 | 999.147 ± 1 | 1509.5 ± 4 | 1509.8 ± 4 | 1510.3 ± 4 | 1511.2 ± 4 | 1512.1 ± 4
308.15 K | 994.279 ± 1 | 994.556 ± 1 | 995.092 ± 1 | 996.095 ± 1 | 997.015 ± 1 | 1520.1 ± 4 | 1520.4 ± 4 | 1520.8 ± 4 | 1521.6 ± 4 | 1522.4 ± 4
313.15 K | 992.732 ± 1 | 992.974 ± 1 | 993.452 ± 1 | 994.51 ± 1 | 995.632 ± 1 | 1529.1 ± 4 | 1529.4 ± 4 | 1529.8 ± 4 | 1530.4 ± 4 | 1531.2 ± 4
318.15 K | 990.833 ± 1 | 990.981 ± 1 | 991.327 ± 1 | 992.156 ± 1 | 992.958 ± 1 | 1536.7 ± 4 | 1537 ± 4 | 1537.2 ± 4 | 1537.8 ± 4 | 1538.5 ± 4

O [water]
[2]
Conditions | speed of sound [m/s]
313.15 K | 1528.9 ± 4
318.15 K | 1536.5 ± 4
